Measured values published in patent US11453681B2, “Substituted eneoxindoles and uses thereof” (Gilead Sciences, Inc., priority 2019, dated 2022).
pIC50: −log10 of the molar value.

Target: human HPK1 (MAP4K1) (Homo sapiens (Human), UniProt Q92918)
Experiment: HPK1 IC50 Assay
Assay type: biochemical
Settings: recombinant HPK1 kinase domain 0.15 nM, synthetic peptide substrate STK S1, 3 hours at 25° C., time-resolved fluorescence energy transfer; geometric mean of multiple experiments

Chain of human HPK1 (MAP4K1) (Q92918 17-274): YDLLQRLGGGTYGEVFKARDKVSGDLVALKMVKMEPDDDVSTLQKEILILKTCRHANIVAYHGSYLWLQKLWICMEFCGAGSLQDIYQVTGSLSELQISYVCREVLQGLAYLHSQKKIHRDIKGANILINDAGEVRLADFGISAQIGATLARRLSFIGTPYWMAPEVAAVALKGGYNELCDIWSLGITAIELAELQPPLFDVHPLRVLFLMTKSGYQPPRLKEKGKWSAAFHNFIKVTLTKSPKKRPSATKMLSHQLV

Cc1c(-c2cc(F)c3c(c2C)/C(=C/c2cn[nH]c2)C(=O)N3)cnc2c1NCCO2 [Compound C65, (Z)-3-((1H-pyrazol-4-yl)methylene)-7-fluoro-4-methyl-5-(8-methyl-2,3-dihydro-1H-pyrido[2,3-b][1,4]oxazin-7-yl)indolin-2-one]
pIC50: 8.99

Cc1c(-c2cc(Cl)c3c(c2)/C(=C/c2cn[nH]c2)C(=O)N3)cnc2c1NCCO2 [Compound C66, (Z)-3-((1H-pyrazol-4-yl)methylene)-7-chloro-5-(8-methyl-2,3-dihydro-1H-pyrido[2,3-b][1,4]oxazin-7-yl)indolin-2-one]
pIC50: 8.16

Cc1cc(-c2cnc3c(c2C)NCCO3)cc2c1NC(=O)/C2=C\c1cn[nH]c1 [Compound C67, (Z)-3-((1H-pyrazol-4-yl)methylene)-7-methyl-5-(8-methyl-2,3-dihydro-1H-pyrido[2,3-b][1,4]oxazin-7-yl)indolin-2-one]
pIC50: 8.36

Cc1n[nH]cc1/C=C1\C(=O)Nc2ccc(-c3cnc4c(c3C)NCCO4)cc21 [Compound C68, (Z)-3-((3-methyl-H-pyrazol-4-yl)methylene)-5-(8-methyl-2,3-dihydro-1H-pyrido[2,3-b][1,4]oxazin-7-yl)indolin-2-one]
pIC50: 9.49

Cc1c(-c2ccc3c(c2)/C(=C/c2cn[nH]c2)C(=O)N3)cnc2c1NCCO2 [Compound C69, (Z)-3-((1H-pyrazol-4-yl)methylene)-5-(8-methyl-2,3-dihydro-1H-pyrido[2,3-b][1,4]oxazin-7-yl)indolin-2-one]
pIC50: 9.59

Cc1c(-c2ccc3c(c2)/C(=C/c2c[nH]c4ccccc24)C(=O)N3)cnc2c1NCCO2 [Compound C70, (Z)-3-((1H-indol-3-yl)methylene)-5-(8-methyl-2,3-dihydro-1H-pyrido[2,3-b][1,4]oxazin-7-yl)indolin-2-one]
pIC50: 9.38

O=C1Nc2ccc(-c3cnc4c(c3)NCCO4)cc2/C1=C/c1ncc[nH]1 [Compound C71, (Z)-3-((1H-imidazol-2-yl)methylene)-5-(2,3-dihydro-1H-pyrido[2,3-b][1,4]oxazin-7-yl)indolin-2-one]
pIC50: 7.18

Cc1c(-c2ccc3c(c2)/C(=C/c2ncc[nH]2)C(=O)N3)cnc2c1NCC1(CC1)O2 [Compound C72, (Z)-3-((1H-imidazol-2-yl)methylene)-5-(8′-methyl-1′,2′-dihydrospiro[cyclopropane-1,3′-pyrido[2,3-b][1,4]oxazin]-7′-yl)indolin-2-one]
pIC50: 8.67
